Patent publication US20260271931A1, “HERBICIDAL MIXTURES” (Bayer Aktiengesellschaft, priority 2023, published 2026)
Read-outs that look alike come from different tables or passages of the source.

How the values were obtained:
Format in all cases: in vivo
Eleusine indica (ELEIN) = experiment: Post-emergence action against weeds, greenhouse pot test, visual rating: Eleusine indica; conditions: for pest or weed control at 150 g/ha / pest or weed control at 15 g/ha / pest or weed control at 50 g/ha / pest or weed control at 40 g/ha: Eleusine indica, post-emergence; for pest or weed control at 150 g/ha: 150 g a.i./ha; for pest or weed control at 15 g/ha: 15 g a.i./ha
Description: (§1) When the observed efficacies already exceed the formal sum total of the values of the tests with individual applications, they also exceed the expected value according to Colby, which is calculated using the formula below and is likewise regarded as an indication of synergism (cf. S. R. Colby; in Weeds 15 (1967) pp. 20 to 22):
(§2) where: • A=efficacy of the active ingredient (A) in % at an application rate of a [g a.i./ha]; • B=efficacy of the active ingredient (B) in % at an application rate of b [g a.i./ha]; • E^C=expected value of the effect of the combination (A)+(B) in % at the combined application rate a+b [g a.i./ha].
(§3) The observed values (E^A) from the experiments, given suitable low dosages, show an effect of the combinations exceeding the expected values according to Colby (E^C) (Δ).
(§4) Seeds of mono- and dicotyledonous weeds were placed in sandy loam in pots, covered with soil and grown in a greenhouse under good growth conditions (temperature, air humidity, water supply). Two to three weeks after sowing, the test plants were treated at the two- to four-leaf stage with the compositions of the invention. The compositions of the invention, formulated as spray powders or as emulsion concentrates, were sprayed onto the green parts of the plant in various dosages with an application rate equivalent to […] of water. After the test plants had been kept in the greenhouse under optimum growth conditions for 3 weeks, the activity of the preparations was rated visually in comparison to untreated controls.
(§5) 100% efficacy means complete control of the particular weed tested.
(§6) 0% efficacy means zero control of the particular weed tested.
(§7) Expected values according to Colby are reported under E.
(§8) The exceedance of the expected value E is given as Δ (=synergistic effect).
(§9) The rating period is reported in days after application (DAT).

Lolium rigidum (LOLRI) = experiment: Post-emergence action against weeds, greenhouse pot test, visual rating: Lolium rigidum
Avena fatua (AVEFA) = experiment: Post-emergence action against weeds, greenhouse pot test, visual rating: Avena fatua
[1] = system: Brachiaria platyfylla (BRAPP); experiment: Post-emergence action against weeds, greenhouse pot test, visual rating: Brachiaria platyfylla
Description: as §1, §2, §3, §4, §5, §6, §7, §8, §9

Centaurea cyanus (CENCY) = experiment: Post-emergence action against weeds, greenhouse pot test, visual rating: Centaurea cyanus
Description: as §1, §2, §3, §4, §5, §6, §7, §8, §9

Bidens pilosa (BIDPI) = experiment: Post-emergence action against weeds, greenhouse pot test, visual rating: Bidens pilosa
[2] = system: Echinochloa crus-galli (ECHCG); experiment: Post-emergence action against weeds, greenhouse pot test, visual rating: Echinochloa crus-galli
Kochia scoparia (KCHSC) = experiment: Post-emergence action against weeds, greenhouse pot test, visual rating: Kochia scoparia
[3] = system: Pharbitis purpurea (PHBPU); experiment: Post-emergence action against weeds, greenhouse pot test, visual rating: Pharbitis purpurea
Description: as §1, §2, §3, §4, §5, §6, §7, §8, §9

[4] = system: Sorghum halepense (SORHA); experiment: Post-emergence action against weeds, greenhouse pot test, visual rating: Sorghum halepense
Description: as §1, §2, §3, §4, §5, §6, §7, §8, §9

[5] = 240 h, read-out: Herbicidal effect [%] on ELEIN 10 DAT
[6] = 504 h, read-out: Herbicidal effect [%] on ELEIN 21 DAT
[7] = 240 h, 50 g a.i./ha, read-out: Herbicidal effect [%] on ELEIN 10 DAT
[8] = 504 h, 50 g a.i./ha, read-out: Herbicidal effect [%] on ELEIN 21 DAT

CCOCN(C(=O)CCl)c1c(C)cccc1CC [Acetochlor, acetochlor]
pest or weed control at 150 g/ha (Eleusine indica (ELEIN); [5]): 80% | pest or weed control at 150 g/ha (Eleusine indica (ELEIN); [6]): 90% | Herbicidal effect [%] on LOLRI 10 DAT (Lolium rigidum (LOLRI); 150 g a.i./ha, 10 DAT): 40% | pest or weed control at 150 g/ha (Lolium rigidum (LOLRI); Lolium rigidum, 504 h, 150 g a.i./ha, 21 DAT, read-out: Herbicidal effect [%] on LOLRI 21 DAT): 0%

O=C(O)COc1ccc(Cl)cc1Cl [2,4-D]
Herbicidal effect [%] on AVEFA 10 DAT (Avena fatua (AVEFA); 40 g a.i./ha): 0% | Herbicidal effect [%] on BRAPP 10 DAT ([1]; 40 g a.i./ha): 0% | Herbicidal effect [%] on BRAPP 21 DAT ([1]; 40 g a.i./ha): 0% | Herbicidal effect [%] on CENCY 21 DAT (Centaurea cyanus (CENCY); 40 g a.i./ha): 75% | Herbicidal effect [%] on ELEIN 10 DAT (Eleusine indica (ELEIN); 40 g a.i./ha): 10%

CCc1cccc(C)c1N(C(=O)CCl)[C@@H](C)COC [S-Metolachlor, S-metolachlor]
Herbicidal effect [%] on AVEFA 10 DAT (Avena fatua (AVEFA); 50 g a.i./ha): 10% | Herbicidal effect [%] on BIDPI 21 DAT (Bidens pilosa (BIDPI); 50 g a.i./ha): 20% | Herbicidal effect [%] on BRAPP 10 DAT ([1]; 50 g a.i./ha): 30% | Herbicidal effect [%] on BRAPP 21 DAT ([1]; 50 g a.i./ha): 30% | Herbicidal effect [%] on CENCY 10 DAT (Centaurea cyanus (CENCY); 50 g a.i./ha): 0% | Herbicidal effect [%] on CENCY 21 DAT (Centaurea cyanus (CENCY); 50 g a.i./ha): 10% | Herbicidal effect [%] on ECHCG 21 DAT ([2]; 50 g a.i./ha): 30% | Herbicidal effect [%] on ELEIN 10 DAT (Eleusine indica (ELEIN); 50 g a.i./ha): 10% | Herbicidal effect [%] on ELEIN 21 DAT (Eleusine indica (ELEIN); 50 g a.i./ha): 10% | Herbicidal effect [%] on KCHSC 21 DAT (Kochia scoparia (KCHSC); 50 g a.i./ha): 10% | Herbicidal effect [%] on LOLRI 21 DAT (Lolium rigidum (LOLRI); 50 g a.i./ha, 21 DAT): 0% | Herbicidal effect [%] on PHBPU 21 DAT ([3]; 50 g a.i./ha): 10% | Herbicidal effect [%] on SORHA 10 DAT ([4]; 50 g a.i./ha, 10 DAT): 10% | Herbicidal effect [%] on SORHA 21 DAT ([4]; 50 g a.i./ha): 10%

Cn1nc(C(F)(F)F)c(CS(=O)(=O)C2=NOC(C)(C)C2)c1OC(F)F [Pyroxasulfone, pyroxasulfone]
pest or weed control at 15 g/ha ([1]; post-emergence, 240 h, 15 g a.i./ha, read-out: Herbicidal effect [%] on BRAPP 10 DAT): 20% | pest or weed control at 15 g/ha (Eleusine indica (ELEIN); [5]): 10% | pest or weed control at 15 g/ha (Eleusine indica (ELEIN); [6]): 60% | pest or weed control at 15 g/ha (Kochia scoparia (KCHSC); Bassia scoparia, post-emergence, 504 h, 15 g a.i./ha, read-out: Herbicidal effect [%] on KCHSC 21 DAT): 0%

COC(=O)c1csc(C)c1S(=O)(=O)NC(=O)n1nc(OC)n(C)c1=O [Thiencarbazone-methyl]
Herbicidal effect [%] on AVEFA 21 DAT (Avena fatua (AVEFA); 21 DAT, 0.33 g a.i./ha): 88% | Herbicidal effect [%] on CENCY 21 DAT (Centaurea cyanus (CENCY); 0.33 g a.i./ha): 40% | Herbicidal effect [%] on LOLRI 21 DAT (Lolium rigidum (LOLRI); 0.33 g a.i./ha, 21 DAT): 88% | Herbicidal effect [%] on PHBPU 21 DAT ([3]; 0.33 g a.i./ha): 40%

CCNc1nc(Cl)nc(NC(C)C)n1 [Atrazine, atrazine]
pest or weed control at 50 g/ha (Eleusine indica (ELEIN); [7]): 30% | pest or weed control at 50 g/ha (Eleusine indica (ELEIN); [8]): 0% | Herbicidal effect [%] on PHBPU 10 DAT ([3]; 50 g a.i./ha, 10 DAT): 30% | Herbicidal effect [%] on PHBPU 21 DAT ([3]; 50 g a.i./ha): 20%

Cc1ccc2c(c1)[C@H](Nc1nc(N)nc(C(C)F)n1)[C@@H](C)C2 (stereo partly drawn) [Indaziflam, indaziflam]
Herbicidal effect [%] on AVEFA 10 DAT (Avena fatua (AVEFA); 3 g a.i./ha): 0% | Herbicidal effect [%] on BIDPI 21 DAT (Bidens pilosa (BIDPI); 3 g a.i./ha): 30% | Herbicidal effect [%] on CENCY 10 DAT (Centaurea cyanus (CENCY); 3 g a.i./ha): 20% | Herbicidal effect [%] on CENCY 21 DAT (Centaurea cyanus (CENCY); 3 g a.i./ha): 10% | Herbicidal effect [%] on ECHCG 10 DAT ([2]; 3 g a.i./ha): 0% | Herbicidal effect [%] on ELEIN 21 DAT (Eleusine indica (ELEIN); 3 g a.i./ha): 10% | Herbicidal effect [%] on KCHSC 10 DAT (Kochia scoparia (KCHSC); 3 g a.i./ha): 10% | Herbicidal effect [%] on KCHSC 21 DAT (Kochia scoparia (KCHSC); 3 g a.i./ha): 20% | Herbicidal effect [%] on LOLRI 21 DAT (Lolium rigidum (LOLRI); 3 g a.i./ha, 21 DAT): 0% | Herbicidal effect [%] on SORHA 21 DAT ([4]; 3 g a.i./ha): 10%

CCNc1nc(Cl)nc(NC(C)(C)C)n1 [Terbuthylazine, terbuthylazine]
pest or weed control at 50 g/ha ([1]; post-emergence, 240 h, 50 g a.i./ha, read-out: Herbicidal effect [%] on BRAPP 10 DAT): 10% | Herbicidal effect [%] on ECHCG 10 DAT ([2]; 50 g a.i./ha): 10% | Herbicidal effect [%] on ECHCG 21 DAT ([2]; 50 g a.i./ha): 0% | pest or weed control at 50 g/ha (Eleusine indica (ELEIN); [7]): 85% | pest or weed control at 50 g/ha (Eleusine indica (ELEIN); [8]): 70% | pest or weed control at 50 g/ha (Lolium rigidum (LOLRI); Lolium rigidum, 504 h, 50 g a.i./ha, 21 DAT, read-out: Herbicidal effect [%] on LOLRI 21 DAT): 0%

bicyclopyrone
Herbicidal effect [%] on BIDPI 21 DAT (Bidens pilosa (BIDPI); 3 g a.i./ha): 10% | Herbicidal effect [%] on CENCY 10 DAT (Centaurea cyanus (CENCY); 3 g a.i./ha): 50% | Herbicidal effect [%] on ELEIN 21 DAT (Eleusine indica (ELEIN); 3 g a.i./ha): 30%

C[n+]1ccc(-c2cc[n+](C)cc2)cc1 [Paraquat, paraquat]
pest or weed control at 40 g/ha (Eleusine indica (ELEIN); [5]): 40% | pest or weed control at 40 g/ha (Eleusine indica (ELEIN); [6]): 10% | pest or weed control at 40 g/ha (Lolium rigidum (LOLRI); Lolium rigidum, 504 h, read-out: Herbicidal effect [%] on LOLRI 21 DAT): 10%
